One block for each compound: values may come before it.
Columns and labels:
NLuc (NanoLuc) [1] = biological target: T1, NLuc (NanoLuc) (Oplophorus gracilirostris, UniProt Q9GV45, A31E/Q38R/Q45L/L54V/A60N/K70R/V71I/A81I/F95D/L99Q/M102K/I117V/P142E/Q151K/Y165I/N193R); test: bioluminescence imaging and spectra, COS-7; assay type: cell-based; details: live cells and lysate; […] substrate in PBS
T1 construct: engineered NanoLuc variant of the 19 kDa subunit, expressed from pcDNA3.1(+) in COS-7, mostly cytosolic

NLuc (NanoLuc) [2] = biological target: T1, NLuc (NanoLuc); test: bioluminescence spectra, COS-7 lysate; assay type: biochemical; details: substrate solution […] in PBS
[3] = biological target: T2, LSSmNep-GR5GS-NLuc (GR HLBD) (Homo sapiens, UniProt P04150); test: NIR-BRET, COS-7 stably expressing single-chain probe; assay type: cell-based; details: live cells stimulated […] h; DBlueC substrate; […] nm filter
T2 construct: gene NR3C1; stably expressed in COS-7
T2 sequence (P04150 486-777): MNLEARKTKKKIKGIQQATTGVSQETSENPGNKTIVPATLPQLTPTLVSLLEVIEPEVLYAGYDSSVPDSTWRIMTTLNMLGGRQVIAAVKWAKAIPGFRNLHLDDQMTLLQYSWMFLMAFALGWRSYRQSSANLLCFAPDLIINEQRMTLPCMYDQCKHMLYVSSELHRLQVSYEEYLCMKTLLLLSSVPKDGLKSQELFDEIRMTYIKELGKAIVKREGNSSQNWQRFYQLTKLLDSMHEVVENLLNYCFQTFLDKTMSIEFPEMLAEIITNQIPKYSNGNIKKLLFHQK

T1 sequence (Q9GV45 28-196 with the stated changes): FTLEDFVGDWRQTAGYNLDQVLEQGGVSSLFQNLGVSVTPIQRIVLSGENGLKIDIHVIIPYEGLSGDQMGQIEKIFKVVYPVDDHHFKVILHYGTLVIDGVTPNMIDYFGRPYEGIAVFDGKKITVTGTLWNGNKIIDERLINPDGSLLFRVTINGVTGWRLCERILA

SMILES: Oc1c(Cc2ccccc2)nc2c(Cc3ccccc3)nc(-c3ccccc3)cn12 [DBlueC, DeepBlueC]
bioluminescence imaging and spectra, COS-7 (NLuc (NanoLuc) [1]): DBlueC and nCTZ were exclusively bright with NLuc and ALuc47, respectively

SMILES: Oc1ccc(Cc2nc3c(Cc4ccccc4)nc(-c4ccc(O)cc4)cn3c2O)cc1 [nCTZ, native coelenterazine]
bioluminescence spectra, COS-7 lysate (NLuc (NanoLuc) [2]): The nCTZ was commonly bright among all the tested marine luciferases

fold NIR-BRET intensity at 10^-6 M [3]: 1.3 fold
SMILES: C[C@]12CCC(=O)C=C1CC[C@@H]1[C@@H]2[C@@H](O)C[C@@]2(C)[C@H]1CC[C@]2(O)C(=O)CO [cortisol]

— article PMC9820568, “Near-Infrared Imaging of Steroid Hormone Activities Using Bright BRET Templates” (International Journal of Molecular Sciences, 2022)
